Reference: patent US7361785B2, “Compound protecting against ultraviolet rays” (Lead Chemical Co., Ltd., priority 2002, dated 2008)

Legend:
[1] = test system: guinea pigs' skin; experiment: Blocking effects against UV ray irradiated on guinea pigs' skin; type: in vivo, male Hartley guinea pigs; details: for UV ray blocking effect score: total score for 2.5% and 5% ointments, 6 irradiated sites each scored 0-4, complete blocking = 24, UV 3000 Lux for 90 s, read 24 hours after irradiation
Experimental: Each compound of the present invention and commercially available p-methoxy cinnamic acid-2-ethyl hexyl as a positive reference were mixed with an ointment base (Plastibase), and 2.5% (mass % of active ingredient) and 5% ointment were prepared for each. The belly area of male Hartley guinea pigs that were 6 to 10 weeks old was shaved, and then further close shaved using an electric shaver. The test animals were then anaesthetized by injecting pentobarbital sodium (30 mg/kg) in their abdominal cavity. Then, 100 mg of the base material, 2.5% ointment and the 5% ointment were respectively spread in 6 to 7 cm long/15 cm wide areas of the shaved belly area of the test animal starting from its head. 10 minutes after spreading, the skin was covered with a piece of felt in which 9 holes (3×3) with 1 cm diameter had been made. A UV ray (3000 Lux) was then irradiated for a 90 second period. 24 hours after the irradiation, the intensity of the red circular marks that had been produced were observed, and the blocking effect investigated. Note that, the evaluation of the UV ray blocking effect was carried out in accordance with the following evaluation criteria (score based on 5 level evaluation).
In advance, 99 types of related compound were prepared using the test method described above as 10% ointments including the compounds of the present invention (the compounds expressed by formula I) and the compounds that are the active ingredient of the UV ray protection agent of the present invention (the compounds expressed by formula I′). A screening test was performed, and 9 compounds that 100% blocked the UV rays selected. Then, lower concentration ointments were prepared for these 9 compounds and an investigation was carried out to test the UV ray protection effect thereof. Note that, as a reference compound, the results for p-methoxy cinnamic acid ethyl hexyl that is used as the active ingredient in commercially sold UV ray protection agents are also shown.

[2] = Acute toxicity resulting from single under skin injection in mice; type: in vivo, male ddY mice; details: male, ddY, mouse, in vivo, subcutaneous, 1 g/kg; single under skin injection, mice
Experimental: (§1) An investigation was carried out using 5 week old male ddY mice.
(§2) Each compound (250 mg) was placed in suspension using the same amount of Tween-80, and then diluted with physiologic saline (5 mL) to form a 5% suspension. Then, supersonic treatment was performed to create the specimen. 0.2 mL/10 g (1 g/kg) of the specimen was injected per body weight under the skin of the back portion of each mouse in groups of five mice. The behavior of the mice was then observed for 1 week after injection while the mice were fed. The body weight of the mice was measured on the 1st, 3rd, 6th and 7th days. After one week, an abdominal section was performed, and changes in the various internal organs and abnormality of the injected area checked for.

[3] = test system: mice; experiment: as above; type: in vivo, male ddY mice; details: single under skin injection 1 g/kg; for Case of death: groups of five mice; for Case of death / Observed items: observed 1 week; for body weight of the mice following injection: weighed on days 1, 3, 6, 7
Experimental: as §1, §2

Row | SMILES | UV ray blocking effect score [1] | LD50 at 1 week [2] [mg/kg] | body weight by the 7th day following injection [3] | Case of death [3] | Observed items [3] | body weight of the mice following injection [3] | UV ray protection effect (in words) ([1]; 2.5% and 5% ointments, comparison within Table 1)
1 | C/C=C/C(=O)Nc1ccccc1C(=O)O [CU-1008] | 20 |  |  |  |  |  | 
2 | Cc1ccccc1OC(=O)c1ccc2ccccc2c1 [CU-2010, o-tolyl-2-naphthyl carboxylate] | 21 |  |  |  |  |  | 
3 | COc1cccc(C(=O)Oc2ccccc2C)c1 [CU-2102] | 15 |  |  |  |  |  | 
4 | Cc1ccc(OC(=O)c2ccc3ccccc3c2)cc1 [CU-5004, p-tolyl-2-naphthyl carboxylate] | 20 | ≥ 1000 | recovered to its level at the time of the first injection | 0/5 | Weight reduction | decreased | 
5 | COc1cccc(C(=O)Oc2ccc(C)cc2)c1 [CU-5008] | 13 | ≥ 1000 | recovered to its level at the time of the first injection | 0/5 | Weight reduction | decreased | 
6 | COc1ccc(C(=O)Oc2ccc(C)cc2)cc1 [CU-5009, p-tolyl anisate] | 19 | ≥ 1000 | recovered to its level at the time of the first injection | 0/5 | Weight reduction | decreased | 
7 | O=C(Oc1cccc2ccccc12)c1ccccc1F [CU-9005] | 24 |  |  |  |  |  | strongest UV ray protection effect
8 | O=C(Oc1ccc2ccccc2c1)c1ccccc1F [CU-10005] | 7 | ≥ 1000 |  | 0/5 | No abnormalities | increased following injection in the same manner as the body weight of the mice in a reference group | 
9 | Cc1ccc([N+](=O)[O-])cc1OC(=O)C=Cc1ccccc1 [CU-11005] | 12 |  |  |  |  |  | 
10 | CCCCC(CC)COC(=O)C=Cc1ccc(OC)cc1 (stereo not drawn) [p-Methoxy-cinnamic acid-2-ethyl hexyl, reference compound] | 18 |  |  |  |  |  | 
